# Source: US12291548B2, “Compounds, compositions, and methods for the treatment of disease” (priority 2018, dated 2025)
# How the values were obtained:
# [1] = biological target: T1, HAQ isoform human STING (hSTING) (Homo sapiens, UniProt Q86WV6, G230A/H232R/R293Q/R71H); experiment: THP1 dual reporter assay (ISRE-inducible Lucia, NF-κB inducible SEAP); format: cell-based; details: THP1 cells naturally expressing HAQ hSTING, 20 h incubation, vs DMSO-treated sample; for ISRE (IRF) reporter activity, induction: QUANTI-luc
# T1 construct: THP1 cells naturally expressing HAQ isoform human STING (hSTING); endogenous in cells; host or cells: THP1 cells stably transfected with ISRE-inducible Lucia and NF-κB inducible SEAP reporters
# Procedure: (§1) THP1 cells naturally expressing HAQ isoform human STING (hSTING), stably transfected with an ISRE-inducible Lucia and NF-κB inducible SEAP were treated with various concentrations of Cmd 1 or DMSO control. After 20 h incubation, levels of Lucia and SEAP were measured using QUANTI-luc and QUANTI-Blue to measure and ISRE and NF-κB reporter activity respectively. Percent induction was calculated from fold change in activity compared to DMSO-treated sample.
# as §1, with “sample. EC50 values were generated by curve fit in Xlfit.” for “sample.”
# as §1, with “Cmd 2” for “Cmd 1”, “reporter activity, respectively, in Xlfit.” for “reporter activity respectively.”
# as §1, with “Cmd 2” for “Cmd 1”, “reporter activity, respectively, in Xlfit.” for “reporter activity respectively.”, “sample. EC50 values were generated by curve fit.” for “sample.”
# mouse STING = biological target: T2, mouse STING (Mus musculus, UniProt Q3TBT3); experiment: RAW macrophage ISRE-inducible Lucia reporter assay; format: cell-based; details: mouse derived RAW macrophages, 20 h incubation, QUANTI-luc, vs DMSO-treated sample
# T2 construct: Mouse derived RAW macrophages stably transfected with an ISRE-inducible Lucia; endogenous in cells; host or cells: Mouse derived RAW macrophages stably transfected with an ISRE-inducible Lucia reporter
# T2 sequence (Q3TBT3 1-378): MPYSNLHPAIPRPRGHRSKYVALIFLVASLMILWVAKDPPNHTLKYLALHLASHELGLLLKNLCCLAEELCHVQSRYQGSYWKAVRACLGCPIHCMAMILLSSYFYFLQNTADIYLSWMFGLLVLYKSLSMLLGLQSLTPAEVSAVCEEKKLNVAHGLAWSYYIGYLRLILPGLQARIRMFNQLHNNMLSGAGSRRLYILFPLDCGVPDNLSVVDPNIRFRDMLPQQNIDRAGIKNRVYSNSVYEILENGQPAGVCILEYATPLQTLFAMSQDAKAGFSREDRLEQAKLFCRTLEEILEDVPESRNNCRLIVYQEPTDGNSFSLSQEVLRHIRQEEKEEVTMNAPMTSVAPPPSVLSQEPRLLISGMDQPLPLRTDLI
# Procedure: (§2) Mouse derived RAW macrophages stably transfected with an ISRE-inducible Lucia were treated with various concentrations of compound 1 or DMSO control. After 20 h incubation, levels of Lucia were measured using QUANTI-luc to measure and ISRE reporter activity. Percent induction was calculated from fold change in activity compared to DMSO-treated sample.
# as §2, with “sample. EC50 values were generated by curve fit in Xlfit.” for “sample.”
# as §2, with “2” for “1”
# Mouse derived RAW macrophages stably transfected with an ISRE-inducible Lucia were treated with various concentrations of compound 2 or DMSO control. After 20 h incubation, levels of Lucia were measured using QUANTI-luc to measure and ISRE reporter activity. […]
# STING CTD = STING CTD (Homo sapiens, UniProt Q86WV6); experiment: Thermal shift assay with STING CTD; format: binding; details: 0.1 mg/mL STING CTD, compound 2 mM to 0.05 uM, SYPRO Orange, 25-80° C.
# Procedure: Thermal shift assay was conducted with 0.1 mg/mL of STING CTD with various dilutions of compound 1 from 2 mM to 0.05 uM in 10 mM HEPES (pH 7.5), 140 mM NaCl and a 5 fold dilution of SYPRO Orange dye (Invitrogen). The fluorescence signal as a function of temperature was recorded using a Real Time PCR machine (Thermo Fisher). The temperature gradient was performed in the range of 25−80° C. with a ramp of 0.2° C. over the course of 60 min. Data were analyzed with the Thermal Shift Software (Thermo Fisher), DSF analysis, and the Derivative model was used to fit the fluorescence data to obtain the midpoint temperature for the thermal protein unfolding transition (Tm) using the curve-fitting software Prism.
# T1 sequence (Q86WV6 whole entry R71H/G230A/H232R/R293Q, canonical isoform): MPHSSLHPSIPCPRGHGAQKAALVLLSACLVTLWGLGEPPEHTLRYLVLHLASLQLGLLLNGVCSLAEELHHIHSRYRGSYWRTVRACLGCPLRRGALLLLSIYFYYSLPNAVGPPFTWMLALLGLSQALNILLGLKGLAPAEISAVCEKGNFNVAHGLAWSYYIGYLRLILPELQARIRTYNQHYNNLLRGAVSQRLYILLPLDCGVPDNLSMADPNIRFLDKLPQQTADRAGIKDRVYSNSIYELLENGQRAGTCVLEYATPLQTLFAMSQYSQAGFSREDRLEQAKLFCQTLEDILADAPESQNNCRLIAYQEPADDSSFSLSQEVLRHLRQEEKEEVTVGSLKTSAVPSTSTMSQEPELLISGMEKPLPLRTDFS
# Sequence of STING CTD (Q86WV6 135-379 limits assumed): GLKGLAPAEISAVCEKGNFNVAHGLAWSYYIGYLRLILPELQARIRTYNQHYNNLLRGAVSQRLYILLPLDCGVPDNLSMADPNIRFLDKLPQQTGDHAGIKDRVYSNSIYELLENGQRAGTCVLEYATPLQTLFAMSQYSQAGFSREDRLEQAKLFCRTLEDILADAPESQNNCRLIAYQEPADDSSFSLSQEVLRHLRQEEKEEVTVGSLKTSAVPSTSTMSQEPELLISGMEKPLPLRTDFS
SMILES,"NF-κB reporter activity, induction ([1]; QUANTI-Blue (SEAP))","ISRE (IRF) reporter activity, induction [1]","ISRE (IRF) reporter activity, induction (mouse STING)","Binding to STING (thermal shift, Tm) (STING CTD)"
CCCCCCCCCCOc1ccc(C(=O)Oc2ccc(CSP3(=O)OC[C@H]4O[C@@H](n5cnc6c(N)ncnc65)[C@H](OP(=O)(O)OC[C@H]5O[C@@H](n6ccc(=O)[nH]c6=O)[C@H](O3)[C@@H]5F)[C@@H]4F)cc2)cc1 (stereo partly drawn) [compound 2],activates natural allelic variant HAQ to induce IRF and NF-κB,activates natural allelic variant HAQ to induce IRF,activates mouse STING to induce IRF in RAW macrophages,
Nc1ncnc2c1ncn2[C@@H]1O[C@@H]2COP(=O)(S)O[C@@H]3[C@H](F)[C@@H](COP(=O)(O)O[C@@H]1[C@@H]2F)O[C@H]3n1ccc(=O)[nH]c1=O (stereo partly drawn) [compound 1],,activates natural allelic variant HAQ to induce IRF,activates mouse STING to induce IRF in RAW macrophages,binds to STING with high affinity
